According to article PMC5094563 (Chemmedchem, 2016):
Where two headings read alike, the source gives them in different places.

Legend:
[1] = molecular target: p110β (Homo sapiens, UniProt P42338); experiment: Biochemical IC50 assay
[2] = molecular target: p110α (Homo sapiens, UniProt P42336); experiment: Biochemical IC50 assay
[3] = all species investigated including mouse, rat, dog and monkey; cited from earlier work
[4] = female Beagle dogs; cited from earlier work
[5] = tested on: P‐gp; conditions: cited from earlier work
[6] = male CD1 mice; cited from earlier work
[7] = tested on: P‐gp; conditions: read-out: P‐gp mediated transport inhibition IC50, cited from earlier work
[8] = male Wistar rats; cited from earlier work
[9] = tested on: BCRP; conditions: read-out: BCRP mediated transport inhibition IC50; for topotecan; cited from earlier work
[10] = tested on: Caco2; conditions: 10 μM, absence of a P‐gp inhibitor; cited from earlier work
[11] = male humans; cited from earlier work
[12] = tested on: BCRP; conditions: cited from earlier work

Sequence of p110α (P42336 109-1068): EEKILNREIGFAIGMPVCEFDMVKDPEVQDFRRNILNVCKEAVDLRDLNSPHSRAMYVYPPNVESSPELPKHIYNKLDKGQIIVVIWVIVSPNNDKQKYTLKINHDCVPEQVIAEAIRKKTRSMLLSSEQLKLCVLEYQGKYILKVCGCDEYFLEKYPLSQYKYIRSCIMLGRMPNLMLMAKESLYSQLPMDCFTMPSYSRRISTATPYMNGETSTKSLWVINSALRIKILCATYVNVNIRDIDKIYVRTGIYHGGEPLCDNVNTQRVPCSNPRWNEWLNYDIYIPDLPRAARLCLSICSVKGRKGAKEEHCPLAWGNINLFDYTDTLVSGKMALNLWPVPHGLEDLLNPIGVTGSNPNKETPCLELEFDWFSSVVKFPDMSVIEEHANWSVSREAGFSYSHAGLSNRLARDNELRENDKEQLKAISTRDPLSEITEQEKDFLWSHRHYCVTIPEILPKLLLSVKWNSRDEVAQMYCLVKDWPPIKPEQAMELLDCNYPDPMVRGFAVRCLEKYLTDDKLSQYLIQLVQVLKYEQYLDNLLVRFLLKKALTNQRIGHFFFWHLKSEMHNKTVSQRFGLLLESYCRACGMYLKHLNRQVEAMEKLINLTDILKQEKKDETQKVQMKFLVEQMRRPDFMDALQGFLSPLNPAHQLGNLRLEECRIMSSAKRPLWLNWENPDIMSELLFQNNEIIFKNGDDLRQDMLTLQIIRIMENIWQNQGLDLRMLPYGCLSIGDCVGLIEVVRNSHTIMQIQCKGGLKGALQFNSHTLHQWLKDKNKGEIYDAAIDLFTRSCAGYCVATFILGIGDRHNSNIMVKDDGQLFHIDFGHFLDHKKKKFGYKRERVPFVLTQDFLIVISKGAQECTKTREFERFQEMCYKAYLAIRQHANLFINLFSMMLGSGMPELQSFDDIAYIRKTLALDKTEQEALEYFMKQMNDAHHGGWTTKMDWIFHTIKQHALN
Sequence of p110β (P42338 109-1070): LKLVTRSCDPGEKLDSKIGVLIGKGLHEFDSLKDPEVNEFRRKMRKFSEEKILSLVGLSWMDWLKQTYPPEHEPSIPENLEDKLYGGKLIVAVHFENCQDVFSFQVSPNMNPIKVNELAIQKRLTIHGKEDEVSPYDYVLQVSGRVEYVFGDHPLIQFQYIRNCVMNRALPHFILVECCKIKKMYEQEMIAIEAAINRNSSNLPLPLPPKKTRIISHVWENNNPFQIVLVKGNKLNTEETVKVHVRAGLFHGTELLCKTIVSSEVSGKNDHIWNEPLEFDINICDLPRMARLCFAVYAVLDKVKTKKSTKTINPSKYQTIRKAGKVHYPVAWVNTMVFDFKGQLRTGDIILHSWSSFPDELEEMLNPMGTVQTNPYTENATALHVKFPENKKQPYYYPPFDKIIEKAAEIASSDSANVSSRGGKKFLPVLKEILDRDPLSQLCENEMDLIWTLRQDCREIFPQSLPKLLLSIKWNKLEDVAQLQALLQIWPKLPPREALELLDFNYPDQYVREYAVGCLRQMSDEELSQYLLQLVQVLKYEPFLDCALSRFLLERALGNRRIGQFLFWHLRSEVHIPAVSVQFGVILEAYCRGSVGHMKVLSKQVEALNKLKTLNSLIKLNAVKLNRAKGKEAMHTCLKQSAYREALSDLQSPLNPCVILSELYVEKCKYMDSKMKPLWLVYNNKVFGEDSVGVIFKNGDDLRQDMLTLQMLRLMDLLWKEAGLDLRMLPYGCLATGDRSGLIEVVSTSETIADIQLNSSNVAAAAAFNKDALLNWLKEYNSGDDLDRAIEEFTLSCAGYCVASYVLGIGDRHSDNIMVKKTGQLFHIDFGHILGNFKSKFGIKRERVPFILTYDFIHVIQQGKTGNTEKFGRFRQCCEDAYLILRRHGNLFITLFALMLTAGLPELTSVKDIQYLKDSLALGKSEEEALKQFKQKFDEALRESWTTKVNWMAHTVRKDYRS

| Structure (SMILES) | IC50 [1] [nM] | IC50 [2] [nM] | other results |
| --- | --- | --- | --- |
| O=C(NC1=Nc2c(ccc(OCCCN3CCOCC3)c2OCC2CCCCC2)C2=NCCN12)c1cccnc1 [Compd 34 d, N ‐{7‐(Cyclohexylmethoxy)‐8‐[3‐(morpholin‐4‐yl)propoxy]‐2,3‐dihydroimidazo[1,2‐c]quinazolin‐5‐yl}nicotinamide] | 88.5 | – | – |
| COc1c(OCCCN2CCOCC2)ccc2c1N=C(NC(=O)c1cncnc1)N1CCN=C21 [Compd 39 h, N ‐{7‐Methoxy‐8‐[3‐(morpholin‐4‐yl)propoxy]‐2,3‐dihydroimidazo[1,2‐c]quinazolin‐5‐yl}pyrimidine‐5‐carboxamide] | 286 | 132 | – |
| COc1c(OCCCN2CCOCC2)ccc2c1N=C(NC(=O)c1ccc3c(c1)OCO3)N1CCN=C21 [Compd 39 a, N ‐{7‐Methoxy‐8‐[3‐(morpholin‐4‐yl)propoxy]‐2,3‐dihydroimidazo[1,2‐c]quinazolin‐5‐yl}‐1,3‐benzodioxole‐5‐carboxamide] | 668 | 20.9 | – |
| COc1c(OCc2ccccc2)ccc2c1N=C(NC(=O)c1cccnc1)N1CCN=C21 [Compd 30, N ‐[8‐(Benzyloxy)‐7‐methoxy‐2,3‐dihydroimidazo[1,2‐c]quinazolin‐5‐yl]nicotinamide] | 1510 | 6.1 | – |
| COc1c(OCCCCN2CCOCC2)ccc2c1N=C(NC(=O)c1cccnc1)N1CCN=C21 [Compd 32 i, N ‐{7‐Methoxy‐8‐[4‐(morpholin‐4‐yl)butoxy]‐2,3‐dihydroimidazo[1,2‐c]quinazolin‐5‐yl}nicotinamide] | 88.1 | – | – |
| COc1c(OCC(C)C)ccc2c1N=C(NC(=O)c1cccnc1)N1CCN=C21 [Compd 32 c, N ‐(8‐Isobutoxy‐7‐methoxy‐2,3‐dihydroimidazo[1,2‐c]quinazolin‐5‐yl)nicotinamide] | 226 | 8 | – |
| COc1c(OCCCN2CCOCC2)ccc2c1N=C(NC(=O)c1cnc(N)nc1)N1CCN=C21 [Compd 39 i, 2‐Amino‐N‐{7‐methoxy‐8‐[3‐(morpholin‐4‐yl)propoxy]‐2,3‐dihydroimidazo[1,2‐c]quinazolin‐5‐yl}pyrimidine‐5‐carboxamide] | – | – | volume of distribution (V ss) [3]: 7 to 32 L/kg; plasma‐free fraction [4]: 42.4%; substrate of efflux transporter P‐gp [5]: substrate; plasma‐free fraction [6]: 27.6%; IC50 ([7]; for digoxin): 7000 nM; IC50 ([7]; for dipyridamole): 7600 nM; plasma‐free fraction [8]: 42.5%; IC50 [9]: 11500 nM; Caco2 P app apical (A) to basal (B) [10]: 5.69 ± 0.291 ×10⁻⁶ cm/s; plasma‐free fraction [11]: 15.8%; substrate of efflux transporter BCRP [12]: substrate |
| COc1c(OCCCN2CCOCC2)ccc2c1N=C(NC(=O)c1cnccn1)N1CCN=C21 [Compd 39 g, N ‐{7‐Methoxy‐8‐[3‐(morpholin‐4‐yl)propoxy]‐2,3‐dihydroimidazo[1,2‐c]quinazolin‐5‐yl}pyrazine‐2‐carboxamide] | 351 | – | – |
| CCOc1ccc2c(c1OC)N=C(NC(=O)c1cccnc1)N1CCN=C21 [Compd 32 b, N ‐(8‐Ethoxy‐7‐methoxy‐2,3‐dihydroimidazo[1,2‐c]quinazolin‐5‐yl)nicotinamide] | 76.1 | 3.6 | – |
| COc1c(O)ccc2c1N=C(NC(=O)c1cccnc1)N1CCN=C21 [Compd 31, N ‐(8‐Hydroxy‐7‐methoxy‐2,3‐dihydroimidazo[1,2‐c]quinazolin‐5‐yl)nicotinamide] | 210 | 8.7 | – |
| CC(C)COc1c(OCCCN2CCOCC2)ccc2c1N=C(NC(=O)c1cccnc1)N1CCN=C21 [Compd 34 c, N ‐{7‐Isobutoxy‐8‐[3‐(morpholin‐4‐yl)propoxy]‐2,3‐dihydroimidazo[1,2‐c]quinazolin‐5‐yl}nicotinamide] | 29.1 | 10.2 | – |

Second part, led by results:

| IC50 [1] [nM] | IC50 [2] [nM] | Structure (SMILES) | other results |
| --- | --- | --- | --- |
| 55.6 | – | O=C(NC1=Nc2c(ccc(OCCCN3CCOCC3)c2O)C2=NCCN12)c1cccnc1 [Compd 33, N ‐{7‐Hydroxy‐8‐[3‐(morpholin‐4‐yl)propoxy]‐2,3‐dihydroimidazo[1,2‐c]quinazolin‐5‐yl}nicotinamide] | – |
| 18.2 | 2.1 | O=C(NC1=Nc2c(ccc(OCCCN3CCOCC3)c2OCC2CCOCC2)C2=NCCN12)c1cccnc1 [Compd 34 e, N ‐{8‐[3‐(Morpholin‐4‐yl)propoxy]‐7‐[(tetrahydro‐2H‐pyran‐4‐yl)methoxy]‐2,3‐dihydroimidazo[1,2‐c]quinazolin‐5‐yl}nicotinamide] | – |
| 63.7 | – | COc1c(OCCCN2CCOCC2)ccc2c1N=C(NC(=O)c1ccncc1)N1CCN=C21 [Compd 39 c, N ‐{7‐Methoxy‐8‐[3‐(morpholin‐4‐yl)propoxy]‐2,3‐dihydroimidazo[1,2‐c]quinazolin‐5‐yl}isonicotinamide] | – |
| 11.2 | 0.9 | COc1c(OCCN2CCOCC2)ccc2c1N=C(NC(=O)c1cccnc1)N1CCN=C21 [Compd 32 h, N ‐{7‐Methoxy‐8‐[2‐(morpholin‐4‐yl)ethoxy]‐2,3‐dihydroimidazo[1,2‐c]quinazolin‐5‐yl}nicotinamide] | – |
| 7.9 | 0.6 | COc1c(OCCCN2CCOCC2)ccc2c1N=C(NC(=O)c1ccc(N)nc1)N1CCN=C21 [Compd 39 e, 6‐Amino‐N‐{7‐methoxy‐8‐[3‐(morpholin‐4‐yl)propoxy]‐2,3‐dihydroimidazo[1,2‐c]quinazolin‐5‐yl}nicotinamide] | – |
| 18 | 3.6 | COc1c(OCCCN(C)C)ccc2c1N=C(NC(=O)c1cccnc1)N1CCN=C21 [Compd 32 e, N ‐{8‐[3‐(Dimethylamino)propoxy]‐7‐methoxy‐2,3‐dihydroimidazo[1,2‐c]quinazolin‐5‐yl}nicotinamide] | – |
| 7.8 | – | CCCOc1c(OCCCN2CCOCC2)ccc2c1N=C(NC(=O)c1cccnc1)N1CCN=C21 [Compd 34 a, N ‐{8‐[3‐(Morpholin‐4‐yl)propoxy]‐7‐propoxy‐2,3‐dihydroimidazo[1,2‐c]quinazolin‐5‐yl}nicotinamide] | – |
| 22.6 | – | C=CCOc1c(OCCCN2CCOCC2)ccc2c1N=C(NC(=O)c1cccnc1)N1CCN=C21 [Compd 34 b, N ‐{7‐(Allyloxy)‐8‐[3‐(morpholin‐4‐yl)propoxy]‐2,3‐dihydroimidazo[1,2‐c]quinazolin‐5‐yl}nicotinamide] | – |
| 7.8 | 1.6 | COc1c(OCCCN2CCOCC2)ccc2c1N=C(NC(=O)c1sc(C)nc1C)N1CCN=C21 [Compd 39 b, N ‐{7‐Methoxy‐8‐[3‐(morpholin‐4‐yl)propoxy]‐2,3‐dihydroimidazo[1,2‐c]quinazolin‐5‐yl}‐2,4‐dimethyl‐1,3‐thiazole‐5‐carboxamide] | – |
| 16.6 | 6.2 | COc1c(OCCCN2CCOCC2)ccc2c1N=C(NC(=O)c1ccnc(N)c1)N1CCN=C21 [Compd 39 d, 2‐Amino‐N‐{7‐methoxy‐8‐[3‐(morpholin‐4‐yl)propoxy]‐2,3‐dihydroimidazo[1,2‐c]quinazolin‐5‐yl}isonicotinamide] | – |
| 20.8 | 1.8 | COc1c(OCCCN2CCOCC2)ccc2c1N=C(NC(=O)c1cccnc1)N1CCN=C21 [Compd 32 g, N ‐{7‐Methoxy‐8‐[3‐(morpholin‐4‐yl)propoxy]‐2,3‐dihydroimidazo[1,2‐c]quinazolin‐5‐yl}nicotinamide] | – |
| 18.3 | 2.9 | COc1c(OCCCN2CCCCC2)ccc2c1N=C(NC(=O)c1cccnc1)N1CCN=C21 [Compd 32 f, N ‐{7‐Methoxy‐8‐[3‐(piperidin‐1‐yl)propoxy]‐2,3‐dihydroimidazo[1,2‐c]quinazolin‐5‐yl}nicotinamide] | – |
| 19.3 | – | O=C(NC1=Nc2c(ccc(OCCCN3CCOCC3)c2OCc2ccncc2)C2=NCCN12)c1cccnc1 [Compd 34 f, N ‐{8‐[3‐(Morpholin‐4‐yl)propoxy]‐7‐[(pyridin‐4‐yl)methoxy]‐2,3‐dihydroimidazo[1,2‐c]quinazolin‐5‐yl}nicotinamide] | – |
| 58.7 | 2.9 | COc1c(OCCCN2CCOCC2)ccc2c1N=C(NC(=O)c1ccc(N(C)C)nc1)N1CCN=C21 [Compd 39 f, 6‐(Dimethylamino)‐N‐{7‐methoxy‐8‐[3‐(morpholin‐4‐yl)propoxy]‐2,3‐dihydroimidazo[1,2‐c]quinazolin‐5‐yl}nicotinamide] | – |
| 1 | 0.4 | COc1c(OCCCN2CCOCC2)ccc2c1N=C(NC(=O)c1cnc(N)nc1C)N1CCN=C21 [Compd 39 j, 2‐Amino‐N‐{7‐methoxy‐8‐[3‐(morpholin‐4‐yl)propoxy]‐2,3‐dihydroimidazo[1,2‐c]quinazolin‐5‐yl}‐4‐methylpyrimidine‐5‐carboxamide] | – |
